“Also recorded” adds a separate entry of the source.
Columns and labels:
[1] = system: mouse model of cerebral aneurysms (PDGFRβ p.559_562del); assay: Mouse cerebral aneurysm model with AAV-introduced PDGFRβ p.559_562del, basilar artery size (Example 2); assay type: in vivo; conditions: mice with AAV PDGFRβ p.559_562del, daily i.p. sunitinib 40, axitinib 25, dasatinib 10 mg/kg/day, 28 days post-infection, versus vehicle, sunitinib p<0.05 (Mann-Whitney U)
From the text: A mouse CA (cerebral aneurysm) model was constructed by applying adeno-associated virus (AAV) around the non-branching region of the basilar artery. HEK293T cells were transfected with pHelper vector, pRC vector, and a pAAV vector comprising the target gene. After culturing, AAV was harvested using the iodixanol gradient method. After determining the AAV serotype, it was mixed with a hydrogel of PBS comprising 15% Pluronic F-127. The virus concentrations (vg/mL) in the hydrogels of AAV-CMV-EGFP, AAV-CMV-PDGFRβ, and AAV-CMV-PDGFRβ p559_562del were 2×10^13, 1×10^12, and 1×10^12, respectively.
Male C57BL/6N mice aged 8-11 weeks (CLEA Japan) were deeply anesthetized with medetomidine (0.3 mg/kg), midazolam (4 mg/kg), and butorphanol (5 mg/kg) administered intraperitoneally (i.p.). The basilar artery was exposed as previously described (Yonekura et al., 2004). Three microliters of hydrogel were applied to the basilar artery and removed after 5 minutes. This application was repeated two more times. The mice were divided into three subgroups (control, PDGFRβ(wt), and PDGFRβ(mutant)). […]
To evaluate the effect of the virus, sections were stained with Elastica Van Gieson (EVG) method, selecting the largest artery section from each brain sample for measurement. […] The area and perimeter of the stained sites were calculated using FUJI-ImageJ software (J. Schindelin et al., Nature Methods, 2012).

[2] = system: mouse model of cerebral aneurysms (PDGFRβ p.559_562del); assay: Mouse cerebral aneurysm model with PDGFRβ p.559_562del, low-dose treatment from day 7, maximum diameter of basilar artery (Example 3)
Description: After deep anesthesia with isoflurane, the mice were decapitated, and the cerebral blood vessels were exposed to measure the maximum diameter of the basilar artery. Each drug administration condition was tested on three mice.

[3] = system: AHNAK mutation-induced cerebral aneurysm model mice; assay: AHNAK mutation-induced (AHNAKmini p.G3819A) cerebral aneurysm model mice, maximum diameter of cerebral blood vessels (Example 5); assay type: in vivo, mouse; conditions: day 7 to day 28 post-infection, 20 μL/g/day; PD173074 0.1 mg/mL, LY294002 0.02 mg/mL, staurosporine 0.02 mg/mL; versus non-administered group; PD173074 p<0.05
From the text: To introduce AHNAK mutations into experimental animals, it is necessary to incorporate the gene into viral vectors or other vehicles. However, AHNAK is a large protein with a length of 5890 amino acids, making it difficult to incorporate its full-length gene into viral vectors. […] AHNAK has many repeat structures (CRU: Consensus Central Repeat Unit), and the mutation sites are also within the CRU. Therefore, we designed a low-molecular-weight version of AHNAK (AHNAKmini) that combines the […] in this order. […] The amino acid sequence of AHNAKmini is shortened to 1943 amino acids with an N-terminal FLAG tag.
The DNA encoding the AHNAKmini with the p.G3819A mutation was chemically synthesized and subcloned directly into a pAAV vector to prepare pAAV-CMV-AHNAK (SEQ ID NO: 19). This was further modified to have the mutation corresponding to p.G3819A (specifically, changing the 3156th guanine (g) in SEQ ID NO: 19 to cytosine (c)) to prepare pAAV-CMV-AHNAK p.G3819A. HEK293T cells were transfected with the pHelper vector, pRC vector, and pAAV-CMV-AHNAK p.G3819A, and cultured, after which AAV produced by the iodixanol gradient method was harvested (AAV-CMV-AHNAK p.G3819A). As a control, AAV encoding EGFP (AAV-CMV-EGFP) was similarly prepared. After determining the […] of AAV, it was mixed with a hydrogel of PBS comprising 15% Pluronic F-127.
Male C57BL/6N mice aged 8-11 weeks (CLEA Japan) were exposed to the middle cerebral artery according to the protocol described in A. Tamura et al., Journal of Cerebral Blood Flow and Metabolism, 1: 53-60 (1981). The hydrogel comprising AAV was applied multiple times at 5-minute intervals. The skull was covered with temporal fascia, the soft tissue was returned to its original position, and the skin was sutured. The total application amounts of AAV-CMV-EGFP and AAV-CMV-AHNAK p.G3819A were 2.4×10^10 vg and 3.3×10^11 vg, respectively. […]
After decapitation, the cerebral blood vessels were exposed, and the maximum diameter of the cerebral blood vessels was measured. […]

Cc1nc(Nc2ncc(C(=O)Nc3c(C)cccc3Cl)s2)cc(N2CCN(CCO)CC2)n1 [dasatinib]
Enlargement (dilation) of basilar artery [1]: suppressed this arterial dilation | Maximum diameter of basilar artery (cerebral vessel expansion) compared to sunitinib ([2]; i.p. daily day 7 to day 28, axitinib 0.76, dasatinib 1.0, sunitinib 0.78 mg/kg/day, three mice each, dasatinib vs sunitinib p=0.040): significantly suppressed cerebral vessel expansion | Treatment effect on cerebral artery expansion (rank order) ([2]; low concentration ranges, administration from day 7 after mutation introduction): highest for dasatinib; also recorded: high treatment/preventive effects

CNC(=O)c1ccccc1Sc1ccc2c(/C=C/c3ccccn3)n[nH]c2c1 [axitinib]
Enlargement (dilation) of basilar artery ([1]; listed as avitinib): suppressed this arterial dilation

CN[C@@H]1C[C@H]2O[C@@](C)([C@@H]1OC)n1c3ccccc3c3c4c(c5c6ccccc6n2c5c31)C(=O)NC4 [staurosporine]
Increase in maximum cerebral vessel diameter [3]: suppressed in all mice

O=c1cc(N2CCOCC2)oc2c(-c3ccccc3)cccc12 [LY294002]
Increase in maximum cerebral vessel diameter [3]: suppressed in all mice

CCN(CC)CCCCNc1ncc2cc(-c3cc(OC)cc(OC)c3)c(NC(=O)NC(C)(C)C)nc2n1 [PD173074]
Increase in maximum cerebral vessel diameter [3]: significant suppression
